Results as given in patent publication US4123612A, “7-(5-Am ino-5-carboxyvaleramido)-3-(carbamoyoloxymethyl)-3-cephem-4-carboxylic acid” (Eli Lilly and Company, priority 1974, dated 1978).

Assays:
[1] = physchem; conditions: 66% dimethylformamide-water
[2] = tested on: Escherichia coli 0127; experiment: Bauer-Kirby disc diffusion, zone of inhibition; type: cell-based
[3] = tested on: Pseudomonas sp. Ps 30; experiment: Bauer-Kirby disc diffusion, zone of inhibition; type: cell-based
[4] = tested on: Salmonella typhosa SA 12; experiment: Bauer-Kirby disc diffusion, zone of inhibition; conditions: Salmonella enterica
Excerpt: (§1) The evaluation was made on the monoammonium salts of separated factors I and II.

[5] = tested on: Salmonella typhosa SA 16; experiment: Bauer-Kirby disc diffusion, zone of inhibition; conditions: Salmonella enterica
Excerpt: as §1

[6] = tested on: Klebsiella-Aerobacter KA 25; experiment: Bauer-Kirby disc diffusion, zone of inhibition; type: cell-based
[7] = tested on: Staphylococcus aureus 3055; experiment: Bauer-Kirby disc diffusion, zone of inhibition; type: cell-based
[8] = solubility; type: physicochemical
[9] = tested on: Klebsiella-Aerobacter KA 14; experiment: Bauer-Kirby disc diffusion, zone of inhibition; type: cell-based
[10] = tested on: Pseudomonas solanacearum; type: in vivo; conditions: 100 ppm.; 0 = no control, 4 = complete control; heavy infestation in controls
[11] = tested on: Proteus sp. PR6; experiment: Bauer-Kirby disc diffusion, zone of inhibition; type: cell-based
[12] = tested on: Pseudomonas sp. Ps 24; experiment: Bauer-Kirby disc diffusion, zone of inhibition; type: cell-based
[13] = tested on: Escherichia coli EC 25; experiment: Bauer-Kirby disc diffusion, zone of inhibition; type: cell-based
[14] = tested on: Ascaris lumbricoides var. suum; experiment: anthelmintic evaluation in mice by treated feed, separate factors (Example 13); type: in vivo; conditions: 0.05 percent in diet, control 2.66
Excerpt: The feeds were utilized as diets for separate groups of mice, five mice per group. About twelve hours after initiation of the feeding, the mice were infected with Ascaris lumbricoides var. suum ova. Another group of five mice was fed the non-medicated feed to serve as a control but was similarly infected at the same time with Ascaris lumbricoides var. suum. All groups were fed their respective feed and maintained under normal laboratory conditions for a period of eight days, at which time all mice were taken off feed. On the ninth day, all mice were sacrificed and the lungs examined to determine the presence, and if present, numbers, of lesions of Ascaris lumbricoides var. suum.
In a further evaluation, the monoammonium salts of A16886I and A16886II were separately evaluated for the control of Ascaris lumbricoides var. suum. The evaluations were conducted in accordance with the procedure reported in Example 11 at a concentration in the diet of 0.05 percent.

[15] = tested on: Staphylococcus aureus 3074; experiment: Bauer-Kirby disc diffusion, zone of inhibition; type: cell-based
[16] = tested on: Proteus sp. PR7; experiment: Bauer-Kirby disc diffusion, zone of inhibition; type: cell-based

For `COC1(NC(=O)CCCC(N)C(=O)O)C(=O)N2C(C(=O)O)=C(COC(N)=O)CS[C@@H]21` (stereo partly drawn) [A16886I, 7-(5-amino-5-carboxyvaleramido)-3-(carbamoyloxymethyl)-7-methoxy-3-cephem-4-carboxylic acid], the pKa ([1]; pH 6.5, pK'a1) was 4.1, the pKa ([1]; pH 6.5, pK'a2) was 5.2 and the pKa ([1]; pH 6.5, pK'a3) was 9.3. It also gave a pKa ([1]; pH 6.5, pK'a4) of 10.5, a zone of inhibition at 0.5 µg/disc ([2]; 0.5 μg./disc) of 8.4 mm and a zone of inhibition at 1 µg/disc ([2]; 1.0 μg./disc) of 12.7 mm. For the same molecule, the zone of inhibition at 2.5 µg/disc ([2]; 2.5 μg./disc) was 15.9 mm, the zone of inhibition at 5 µg/disc ([2]; 5 μg./disc) was 18.6 mm and the zone of inhibition at 10 µg/disc ([2]; 10 μg./disc) was 20.7 mm. For the same molecule, the zone of inhibition at 30 µg/disc ([2]; 30 μg./disc) was 25.6 mm, the zone of inhibition at 0.5 µg/disc ([3]; SP.PS30, 0.5 μg./disc) was 0 mm and the zone of inhibition at 1 µg/disc ([3]; SP.PS30, 1.0 μg./disc) was 0 mm. It also gave a zone of inhibition at 2.5 µg/disc ([3]; SP.PS30, 2.5 μg./disc) of 0 mm, a zone of inhibition at 5 µg/disc ([3]; SP.PS30, 5 μg./disc) of 0 mm and a zone of inhibition at 10 µg/disc ([3]; SP.PS30, 10 μg./disc) of 0 mm. It also gave a zone of inhibition at 30 µg/disc ([3]; SP.PS30, 30 μg./disc) of 0 mm, a zone of inhibition at 0.5 µg/disc [4] of 8 mm and a zone of inhibition at 1 µg/disc [4] of 11.3 mm. For the same molecule, the zone of inhibition at 2.5 µg/disc [4] was 16.9 mm, the zone of inhibition at 5 µg/disc [4] was 19.9 mm and the zone of inhibition at 10 µg/disc [4] was 22.8 mm. The zone of inhibition at 30 µg/disc [4] was 27.2 mm, the zone of inhibition at 0.5 µg/disc [5] was 0 mm and the zone of inhibition at 1 µg/disc [5] was 9.3 mm. It also gave a zone of inhibition at 2.5 µg/disc [5] of 13.1 mm, a zone of inhibition at 5 µg/disc [5] of 16.2 mm and a zone of inhibition at 10 µg/disc [5] of 19.6 mm. It also gave a zone of inhibition at 30 µg/disc [5] of 24.2 mm, a zone of inhibition at 0.5 µg/disc ([6]; 0.5 μg./disc) of 0 mm and a zone of inhibition at 1 µg/disc ([6]; 1.0 μg./disc) of 0 mm. It also gave a zone of inhibition at 2.5 µg/disc ([6]; 2.5 μg./disc) of 9 mm, a zone of inhibition at 5 µg/disc ([6]; 5 μg./disc) of 12.3 mm and a zone of inhibition at 10 µg/disc ([6]; 10 μg./disc) of 15.8 mm. It also gave a zone of inhibition at 30 µg/disc ([6]; 30 μg./disc) of 22.1 mm, a zone of inhibition at 0.5 µg/disc ([7]; 0.5 μg./disc) of 0 mm and a zone of inhibition at 1 µg/disc ([7]; 1.0 μg./disc) of 0 mm. The zone of inhibition at 2.5 µg/disc ([7]; 2.5 μg./disc) was 0 mm, the zone of inhibition at 5 µg/disc ([7]; 5 μg./disc) was 0 mm and the zone of inhibition at 10 µg/disc ([7]; 10 μg./disc) was 0 mm. The zone of inhibition at 30 µg/disc ([7]; 30 μg./disc) was 0 mm, the “solubility in acetonitrile and other organic solvents” value ([8]; acetonitrile and other organic solvents) was “essentially insoluble” and the “solubility in lower alkanols” value ([8]; lower alkanols) was “slightly soluble”. For the same molecule, the solubility in water ([8]; water) was “very soluble”, the zone of inhibition at 0.5 µg/disc ([9]; 0.5 μg./disc) was 0 mm and the zone of inhibition at 1 µg/disc ([9]; 1.0 μg./disc) was 7.6 mm. The zone of inhibition at 2.5 µg/disc ([9]; 2.5 μg./disc) was 11.4 mm, the zone of inhibition at 5 µg/disc ([9]; 5 μg./disc) was 15.4 mm and the zone of inhibition at 10 µg/disc ([9]; 10 μg./disc) was 18.8 mm. For the same molecule, the zone of inhibition at 30 µg/disc ([9]; 30 μg./disc) was 23 mm, the “Disease Rating” value [10] was 4 and the zone of inhibition at 0.5 µg/disc ([11]; 0.5 μg./disc) was 0 mm. For the same molecule, the zone of inhibition at 1 µg/disc ([11]; 1.0 μg./disc) was 9.9 mm, the zone of inhibition at 2.5 µg/disc ([11]; 2.5 μg./disc) was 13.6 mm and the zone of inhibition at 5 µg/disc ([11]; 5 μg./disc) was 16.7 mm. It also gave a zone of inhibition at 10 µg/disc ([11]; 10 μg./disc) of 19 mm, a zone of inhibition at 30 µg/disc ([11]; 30 μg./disc) of 23.2 mm and a zone of inhibition at 0.5 µg/disc ([12]; SP.PS24, 0.5 μg./disc) of 0 mm. It also gave a zone of inhibition at 1 µg/disc ([12]; SP.PS24, 1.0 μg./disc) of 10.1 mm, a zone of inhibition at 2.5 µg/disc ([12]; SP.PS24, 2.5 μg./disc, * = satellite colonies within zone (Factor II)) of 13.2 mm and a zone of inhibition at 5 µg/disc ([12]; SP.PS24, 5 μg./disc, * = satellite colonies within zone (Factor II)) of 15.7 mm. It also gave a zone of inhibition at 10 µg/disc ([12]; SP.PS24, 10 μg./disc) of 18.2 mm, a zone of inhibition at 30 µg/disc ([12]; SP.PS24, 30 μg./disc) of 23 mm and a zone of inhibition at 0.5 µg/disc ([13]; EC25, 0.5 μg./disc) of 0 mm. The zone of inhibition at 1 µg/disc ([13]; EC25, 1.0 μg./disc) was 0 mm, the zone of inhibition at 2.5 µg/disc ([13]; EC25, 2.5 μg./disc) was 9.1 mm and the zone of inhibition at 5 µg/disc ([13]; EC25, 5 μg./disc) was 12.5 mm. The zone of inhibition at 10 µg/disc ([13]; EC25, 10 μg./disc) was 15.1 mm, the zone of inhibition at 30 µg/disc ([13]; EC25, 30 μg./disc) was 19.6 mm and the “Average Number of Lung Lesions Per Group” value [14] was 0.46. For the same molecule, the zone of inhibition at 0.5 µg/disc ([15]; 0.5 μg./disc) was 0 mm, the zone of inhibition at 1 µg/disc ([15]; 1.0 μg./disc) was 0 mm and the zone of inhibition at 2.5 µg/disc ([15]; 2.5 μg./disc) was 0 mm. For the same molecule, the zone of inhibition at 5 µg/disc ([15]; 5 μg./disc) was 0 mm, the zone of inhibition at 10 µg/disc ([15]; 10 μg./disc) was 0 mm and the zone of inhibition at 30 µg/disc ([15]; 30 μg./disc) was 0 mm. The zone of inhibition at 0.5 µg/disc ([16]; 0.5 μg./disc) was 0 mm, the zone of inhibition at 1 µg/disc ([16]; 1.0 μg./disc) was 0 mm and the zone of inhibition at 2.5 µg/disc ([16]; 2.5 μg./disc) was 0 mm. It also gave a zone of inhibition at 5 µg/disc ([16]; 5 μg./disc) of 0 mm, a zone of inhibition at 10 µg/disc ([16]; 10 μg./disc) of 10.4 mm and a zone of inhibition at 30 µg/disc ([16]; 30 μg./disc) of 14 mm.
